Reference: publication PMC5407626 (PLoS ONE, 2017)

What was measured:
[1] = target: RBP4 (Homo sapiens, UniProt P02753); assay: Binding to RBP4; conditions: data not shown
[2] = target: T1, RARβ (Homo sapiens, UniProt P10826); assay: GeneBLAzer RAR-beta DA assay, agonist mode; format: cell-based
T1 sequence (P10826 183-417 limits assumed): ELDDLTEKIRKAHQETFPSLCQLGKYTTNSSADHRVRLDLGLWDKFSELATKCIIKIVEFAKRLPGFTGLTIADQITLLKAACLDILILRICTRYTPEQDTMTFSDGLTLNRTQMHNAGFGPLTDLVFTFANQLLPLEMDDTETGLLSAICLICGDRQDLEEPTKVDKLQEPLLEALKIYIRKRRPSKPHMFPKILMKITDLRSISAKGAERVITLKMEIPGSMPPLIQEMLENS
Description: (§1) The potency of agonists and antagonists was measured by GeneBLAzer RAR-beta DA Assay Kit (ThermoFisher Scientific) according to the manufacturer’s recommendations.
The phenylretinamides may have the ability to modulate the expression of proteins and induce cell apoptosis via RAR-dependent and -independent pathways. […] Human retina-derived cells in culture show differences in expression of RAR receptors. […] Clonetics HRPE primary human cells specifically express only RARβ [50].

[3] = target: T2, recombinant mouse BCO1 (Mus musculus, UniProt Q9JJS6); assay: In vitro inhibition of recombinant mouse BCO1 activity; format: biochemical; conditions: inhibitor 0–200 μM
T2 construct: His-tag; made in house; host or cells: E. coli
T2 sequence (Q9JJS6 1-566): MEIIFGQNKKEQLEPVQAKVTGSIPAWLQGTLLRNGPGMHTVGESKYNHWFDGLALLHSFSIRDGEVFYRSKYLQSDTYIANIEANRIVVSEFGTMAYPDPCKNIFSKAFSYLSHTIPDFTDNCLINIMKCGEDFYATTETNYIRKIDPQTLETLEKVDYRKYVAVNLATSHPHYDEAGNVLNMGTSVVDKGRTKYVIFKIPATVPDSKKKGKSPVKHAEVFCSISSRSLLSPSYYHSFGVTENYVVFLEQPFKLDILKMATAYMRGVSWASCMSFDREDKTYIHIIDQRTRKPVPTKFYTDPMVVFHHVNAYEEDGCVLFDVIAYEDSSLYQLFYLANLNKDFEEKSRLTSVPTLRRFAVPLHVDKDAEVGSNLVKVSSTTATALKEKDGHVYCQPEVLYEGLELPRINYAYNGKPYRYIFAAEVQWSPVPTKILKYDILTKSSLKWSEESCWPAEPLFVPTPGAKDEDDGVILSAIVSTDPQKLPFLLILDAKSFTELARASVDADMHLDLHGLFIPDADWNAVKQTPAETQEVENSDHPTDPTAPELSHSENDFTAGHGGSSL
Source text: Recombinant His-tag mouse BCO1 was produced in E.coli and purified using Talon CellThru (Clontech Labs, Inc., Mountain View, CA) resin as described previously. β-carotene was delivered in 1% octylthioglucoside. […] All other inhibitors were delivered in ethanol. […] The final concentration of ethanol in all samples was 1%. […] Data plotted as means±standard deviation; n = 3; […] Analysis was done in C57BL/6 wt (3 animals) and Bco1^-/- mice (13 animals).

[4] = target: T1, RARβ; assay: GeneBLAzer RAR-beta DA assay, antagonist mode (competition with at-RA); format: cell-based; conditions: at-RA 0.5–1.5 nM; tested 10^−5 to 10^−9 M
Description: as §1
The phenylretinamides may have the ability to modulate the expression of proteins and induce cell apoptosis via RAR-dependent and -independent pathways. […] Additionally, apoptosis of neuroblastoma cell lines was blocked by two retinoic acid receptor (RAR)-β/γ-specific antagonists, but not by a RARα-specific antagonist. […] However, in this case the specific RARα-specific antagonist AGN194301 could block fenretinde-induced apoptosis. […] Human retina-derived cells in culture show differences in expression of RAR receptors. […] Clonetics HRPE primary human cells specifically express only RARβ [50].
Fluorescence was measured at excitation (ex) 409 nm/emission (em) 460 and at ex 409nm/em 530 nm and the ratio was determined and plotted against a range of concentrations (10^−5 to 10^−9 M) of the tested compounds.

Structure (SMILES): CCOc1ccc(NC(=O)/C=C(C)/C=C/C=C(C)/C=C/C2=C(C)CCCC2(C)C)cc1 [EPR, N-[4-ethoxyphenyl]retinamide]
- RBP4 binding compared with MPR [1]: less potent inhibitor
- EC50 [2]: 4.4 µM
- effect on BCO1 activity [3]: does not inhibit BCO1 activity
- competition with all-trans-retinoic acid [4]: cannot compete
